Test results taken from patent publication US10538528B2, “5H-pyrrolo[2,3-D]pyrimidin-6(7H)-one derivative” (Taiho Pharmaceutical Co., Ltd., priority 2016, dated 2020).

Tests used:
Type in all cases: biochemical
human Akt1 = human Akt1 (Homo sapiens (Human), UniProt P31749); test: Inhibitory effects on Akt1 kinase activity (TR-FRET, biotinylated Crosstide); details: Akt1, ATP 150 μM, pre-incubation 120 minutes at 25° C.; read-out: AKT inhibitory activity IC50
Experimental: Akt1 was prepared and assays of inhibitory activity of the compound according to the present invention against Akt1 kinase activity in vitro were conducted according to the method described in Biochem. J., vol. 385, pp. 399-408, 2005 and Cancer Res., vol. 68, pp. 2366-2374, 2008. In the preparation of Akt1 protein, human Akt1 tagged with the middle T antigen was expressed in an insect cell Sf9, Akt1 was prepared through affinity purification and activation by PDK1, and the resultant was stored at −80° C. until the inhibition assays of the compounds. In the inhibition assay of the compounds, Akt1 and the compound according to the present invention were subjected to pre-incubation at 25° C. for 120 minutes in a reaction buffer (15 mM Tris-HCl, pH 7.5, 0.01% Tween-20, 2 mM DTT). Subsequently, biotinylated Crosstide (biotin-[…], Millipore), MgCl2, and ATP were added as substrates at the final concentration of 500 nM, 10 mM, and 150 μM, respectively, and the reaction was allowed to proceed at 25° C. for 60 minutes. EDTA was added to the final concentration of 40 mM to terminate the reaction, a detection liquid containing the Eu-anti-phospho-Crosstide antibody (PerkinElmer) and SureLight APC-SA (PerkinElmer) at the final concentration of 0.5 nM and 62.5 nM, respectively was added, and the reaction was allowed to proceed at room temperature for 2 hours. In the end, the fluorescence levels irradiated with an excitation light of 337 nm were assayed at two different wavelength levels (i.e., 620 nm and 665 nm) using PI-HERAstar FS (BMG LABTECH) or PHERAstar (BMG LABTECH). The level of the phosphorylation reaction was determined on the basis of the ratio of fluorescence levels at two wavelength levels, and the concentration of the compound at which phosphorylation could be inhibited by 50% was defined as the IC50 level (nM) and shown in Table 2.
As reference compounds, conventional Comparative Example A (WO 2010/056563 (Example 31)) and Comparative Example B having inhibitory activity against Akt were used.

Rsk1 = Rsk1 (Homo sapiens (Human), UniProt Q15418); test: Inhibitory effects on Rsk1 kinase activity (QSS Assist FP assay kit); details: Rsk1, ATP 30 μM; read-out: Rsk inhibitory activity IC50
Experimental: Inhibitory activity of the compound according to the present invention on Rsk1 kinase activity in vitro was assayed using the QSS Assist™ FP assay kit (Carna Biosciences, Inc.).
In the inhibition assay of inhibitory activity of the compound, the test compound was diluted by serial dilution with dimethyl sulfoxide (DMSO). Subsequently, an Rsk1 protein, a substrate peptide (final concentration: 100 nM), magnesium chloride (final concentration: 10 mM), ATP (final concentration: 30 μM), and the solution of the test compound in DMSO (DMSO final concentration: 5%) were added to the kinase reaction buffer (20 mM HEPES (pH 7.4), 2 mM dithiothreitol, 0.01% Tween-20), and the mixture was incubated at 25° C. for 40 minutes to perform the kinase reaction. The IMAP Progressive Binding Reagent diluted to 400-fold with the IMAP Progressive Binding Buffer A (Molecular Devices, LLC) was added to terminate the kinase reaction.

S6K1 = S6K1 (Homo sapiens (Human), UniProt P23443); test: Inhibitory effects on S6K1 kinase activity (QSS Assist FP assay kit); details: S6K1, ATP 25 μM; read-out: S6K inhibitory activity IC50
Experimental: Inhibitory activity of the compound according to the present invention on S6K1 kinase activity in vitro was assayed using the QSS Assist™ FP assay kit (Carna Biosciences, Inc.).
In the inhibition assay for inhibitory activity of the compound, the test compound was diluted by serial dilution with dimethyl sulfoxide (DMSO). Subsequently, an S6K protein, a substrate peptide (final concentration: 100 nM), magnesium chloride (final concentration: 5 mM), ATP (final concentration: 25 μM), and the solution of the test compound in DMSO (final DMSO concentration: 5%) were added to the kinase reaction buffer (20 mM HEPES (pH 7.4), 2 mM dithiothreitol, 0.01% Tween-20), and the mixture was incubated at 25° C. for 30 minutes to perform the kinase reaction. The IMAP Progressive Binding Reagent diluted to 400-fold with the IMAP Progressive Binding Buffer A (Molecular Devices, LLC) was added thereto to terminate the kinase reaction. The reaction product was allowed to stand at room temperature in the dark for 120 minutes and assayed with the use of PHERAstar (BMG LABTECH; excitation wavelength: 485 nm; detection wavelength: 520 nm). The level of phosphorylation reaction was determined based on the degree of fluorescence polarization, and the concentration of the compound at which phosphorylation could be inhibited by 50% was defined as the IC50 level (nM) and shown in Table 4.

Sequence of human Akt1 (P31749 whole entry): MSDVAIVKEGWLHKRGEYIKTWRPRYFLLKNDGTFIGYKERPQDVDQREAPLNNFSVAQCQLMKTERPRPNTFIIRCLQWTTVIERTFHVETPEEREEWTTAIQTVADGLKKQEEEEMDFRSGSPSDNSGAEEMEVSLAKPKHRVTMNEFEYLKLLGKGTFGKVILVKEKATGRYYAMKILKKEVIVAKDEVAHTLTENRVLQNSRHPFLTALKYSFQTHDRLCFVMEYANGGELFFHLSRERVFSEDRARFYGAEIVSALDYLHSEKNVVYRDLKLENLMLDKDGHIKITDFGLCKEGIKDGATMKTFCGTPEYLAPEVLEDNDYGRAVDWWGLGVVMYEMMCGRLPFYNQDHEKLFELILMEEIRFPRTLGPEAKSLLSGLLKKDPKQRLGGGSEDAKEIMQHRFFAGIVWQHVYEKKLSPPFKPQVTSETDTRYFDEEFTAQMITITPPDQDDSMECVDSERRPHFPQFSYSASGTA
Sequence of Rsk1 (Q15418 whole entry): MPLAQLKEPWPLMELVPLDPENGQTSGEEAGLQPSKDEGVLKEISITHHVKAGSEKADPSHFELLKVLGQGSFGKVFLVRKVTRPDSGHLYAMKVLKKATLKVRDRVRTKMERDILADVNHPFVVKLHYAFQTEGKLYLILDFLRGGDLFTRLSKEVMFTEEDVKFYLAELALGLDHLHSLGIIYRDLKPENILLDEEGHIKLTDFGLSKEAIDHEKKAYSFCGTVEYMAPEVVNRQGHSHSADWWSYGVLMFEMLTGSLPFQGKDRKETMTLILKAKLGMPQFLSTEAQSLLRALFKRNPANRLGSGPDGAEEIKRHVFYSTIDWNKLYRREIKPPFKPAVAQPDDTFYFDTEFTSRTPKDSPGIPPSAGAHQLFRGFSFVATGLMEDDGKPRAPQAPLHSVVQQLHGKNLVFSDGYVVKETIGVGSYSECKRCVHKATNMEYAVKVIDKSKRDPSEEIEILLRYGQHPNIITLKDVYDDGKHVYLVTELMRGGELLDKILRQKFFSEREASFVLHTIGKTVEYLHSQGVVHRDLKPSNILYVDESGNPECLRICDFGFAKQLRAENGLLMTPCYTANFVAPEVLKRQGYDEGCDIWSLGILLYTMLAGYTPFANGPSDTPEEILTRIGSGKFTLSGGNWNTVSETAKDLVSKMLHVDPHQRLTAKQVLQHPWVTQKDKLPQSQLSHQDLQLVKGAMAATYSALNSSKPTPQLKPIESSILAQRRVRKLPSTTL
Sequence of S6K1 (P23443 whole entry): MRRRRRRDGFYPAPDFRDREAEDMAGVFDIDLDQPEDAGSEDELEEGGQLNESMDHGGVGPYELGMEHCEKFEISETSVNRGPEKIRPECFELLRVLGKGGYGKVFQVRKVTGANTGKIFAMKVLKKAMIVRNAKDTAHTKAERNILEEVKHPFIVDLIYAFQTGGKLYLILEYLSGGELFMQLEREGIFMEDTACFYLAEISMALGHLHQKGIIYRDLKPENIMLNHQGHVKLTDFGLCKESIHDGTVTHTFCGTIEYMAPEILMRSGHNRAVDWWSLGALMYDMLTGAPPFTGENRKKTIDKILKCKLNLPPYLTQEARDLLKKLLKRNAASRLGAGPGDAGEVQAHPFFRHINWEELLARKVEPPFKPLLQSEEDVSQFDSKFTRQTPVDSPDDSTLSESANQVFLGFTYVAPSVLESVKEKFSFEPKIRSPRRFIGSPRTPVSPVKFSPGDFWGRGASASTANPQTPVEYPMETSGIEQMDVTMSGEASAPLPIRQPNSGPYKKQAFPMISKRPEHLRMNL

SMILES | IC50 (human Akt1) [nM] | IC50 (Rsk1) [nM] | IC50 (S6K1) [nM]
COc1cc(-c2ccc(NCCN3CCCC3)c(C3CCN(c4ncnc5c4C(C)C(=O)N5)CC3)n2)c(F)cn1 (stereo not drawn) [Compound 16, 4-(4-(5′-Fluoro-2′-methoxy-5-((2-(pyrrolidin-1-yl)ethyl)amino)-[2,4′-bipyridin]-6-yl)piperidin-1-yl)-5-methyl-5H-pyrrolo[2,3-d]pyrimidin-6(7H)-one] | 1.9 | 0.8 | 0.7
CC1C(=O)Nc2ncnc(N3CCC(c4nc(-c5cccnc5F)ccc4NCCN4CCCC4)CC3)c21 (stereo not drawn) [Compound 17, 4-(4-(2′-Fluoro-5-((2-(pyrrolidin-1-yl)ethyl)amino)-[2,3′-bipyridin]-6-yl)piperidin-1-yl)-5-methyl-5H-pyrrolo[2,3-d]pyrimidin-6(7H)-one] | 0.6 | 1.1 | 0.7
CC(C)NCCNc1ccc(-c2nnc(C(F)F)s2)nc1C1CCN(c2ncnc3c2C(C)(C)C(=O)N3)CC1 [Compound 39, 4-(4-(6-(5-(Difluoromethyl)-1,3,4-thiadiazol-2-yl)-3-((2-(isopropylamino)ethyl)amino)pyridin-2-yl)piperidin-1-yl)-5,5-dimethyl-5H-pyrrolo[2,3-d]pyrimidin-6(7H)-one] | 4.1 | 0.6 | 0.3
CC1C(=O)Nc2ncnc(N3CCC(c4nc(-c5ccsc5)ccc4NCCN(C)C)CC3)c21 (stereo not drawn) [Compound 23, 4-(4-(3-((2-(Dimethylamino)ethyl)amino)-6-(thiophen-3-yl)pyridin-2-yl)piperidin-1-yl)-5-methyl-5H-pyrrolo[2,3-d]pyrimidin-6(7H)-one] | 0.7 | 1.5 | 0.4
COc1cncc(-c2ccc(NCCN(C)C)c(C3CCN(c4ncnc5c4C(C)C(=O)N5)CC3)n2)c1 (stereo not drawn) [Compound 21, 4-(4-(5-((2-(Dimethylamino)ethyl)amino)-5′-methoxy-[2,3′-bipyridin]-6-yl)piperidin-1-yl)-5-methyl-5H-pyrrolo[2,3-d]pyrimidin-6(7H)-one] | 4 | 1.3 | 0.7
CC1C(=O)Nc2ncnc(N3CCC(c4nc(-c5ccsc5)ccc4NCCN4CCCC4)CC3)c21 (stereo not drawn) [Compound 18, 5-Methyl-4-(4-(3-((2-(pyrrolidin-1-yl)ethyl)amino)-6-(thiophen-3-yl)pyridin-2-yl)piperidin-1-yl)-5H-pyrrolo[2,3-d]pyrimidin-6(7H)-one] | 0.5 | 1.4 | 0.8
CC1C(=O)Nc2ncnc(N3CCC(c4nc(-c5cc(C(F)(F)F)nn5C)ccc4NCCN4CCCC4)CC3)c21 (stereo not drawn) [Compound 20, 5-Methyl-4-(4-(6-(1-methyl-3-(trifluoromethyl)-1H-pyrazol-5-yl)-3-((2-(pyrrolidin-1-yl)ethyl)amino)pyridin-2-yl)piperidin-1-yl)-5H-pyrrolo[2,3-d]pyrimidin-6(7H)-one] | 0.6 | 0.9 | 0.6
CC(C)NCCNc1ccc(-c2cc(Cl)nn2C)nc1C1CCN(c2ncnc3c2C(C)(C)C(=O)N3)CC1 [Compound 11, 4-(4-(6-(3-Chloro-1-methyl-1H-pyrazol-5-yl)-3-((2-(isopropylamino)ethyl)amino)pyridin-2-yl)piperidin-1-yl)-5,5-dimethyl-5H-pyrrolo[2,3-d]pyrimidin-6(7H)-one] | 5.8 | 0.7 | 0.3
CC(C)NCCNc1ccc(-c2cnc(F)c(F)c2)nc1C1CCN(c2ncnc3c2C(C)(C)C(=O)N3)CC1 [Compound 5, 4-(4-(5′,6′-Difluoro-5-((2-(isopropylamino)ethyl)amino)-[2,3′-bipyridin]-6-yl)piperidin-1-yl)-5,5-dimethyl-5H-pyrrolo[2,3-d]pyrimidin-6(7H)-one] | 3.5 | 0.7 | 0.3
CC(C)NCCNc1ccc(-c2nnc(C(F)F)o2)nc1C1CCN(c2ncnc3c2C(C)(C)C(=O)N3)CC1 [Compound 31, 4-(4-(6-(5-(Difluoromethyl)-1,3,4-oxadiazol-2-yl)-3-((2-(isopropylamino)ethyl)amino)pyridin-2-yl)piperidin-1-yl)-5,5-dimethyl-5H-pyrrolo[2,3-d]pyrimidin-6(7H)-one] | 7.6 | 1.8 | 0.6

More lines, now with the values ahead:

IC50 (human Akt1) [nM] | IC50 (Rsk1) [nM] | IC50 (S6K1) [nM] | SMILES
2.5 | 1 | 0.5 | CC(C)NCCNc1ccc(-c2nnc(C(F)(F)F)o2)nc1C1CCN(c2ncnc3c2C(C)(C)C(=O)N3)CC1 [Compound 33, 4-(4-(3-((2-(Isopropylamino)ethyl)amino)-6-(5-(trifluoromethyl)-1,3,4-oxadiazol-2-yl)pyridin-2-yl)piperidin-1-yl)-5,5-dimethyl-5H-pyrrolo[2,3-d]pyrimidin-6(7H)-one]
1 | 0.4 | 0.4 | CC(C)(C)NCCNc1ccc(-c2nc(C(F)(F)F)no2)nc1C1CCN(c2ncnc3c2C(C)(C)C(=O)N3)CC1 [Compound 43, 4-(4-(3-((2-(Tert-butylamino)ethyl)amino)-6-(3-(trifluoromethyl)-1,2,4-oxadiazol-5-yl)pyridin-2-yl)piperidin-1-yl)-5,5-dimethyl-5H-pyrrolo[2,3-d]pyrimidin-6(7H)-one]
4.8 | 1.2 | 0.5 | CC(C)NCCNc1ccc(-c2noc(C(F)(F)F)n2)nc1C1CCN(c2ncnc3c2C(C)(C)C(=O)N3)CC1 [Compound 42, 4-(4-(3-((2-(Isopropylamino)ethyl)amino)-6-(5-(trifluoromethyl)-1,2,4-oxadiazol-3-yl)pyridin-2-yl)piperidin-1-yl)-5,5-dimethyl-5H-pyrrolo[2,3-d]pyrimidin-6(7H)-one]
3.6 | 0.6 | 0.3 | CC(C)(C)NCCNc1ccc(-c2nnc(C3CC3)s2)nc1C1CCN(c2ncnc3c2C(C)(C)C(=O)N3)CC1 [Compound 40, 4-(4-(3-((2-(Tert-butylamino)ethyl)amino)-6-(5-cyclopropyl-1,3,4-thiadiazol-2-yl)pyridin-2-yl)piperidin-1-yl)-5,5-dimethyl-5H-pyrrolo[2,3-d]pyrimidin-6(7H)-one]
1 | 0.9 | 0.4 | CN(CCNc1ccc(-c2nnc(C(F)(F)F)o2)nc1C1CCN(c2ncnc3c2C(C)(C)C(=O)N3)CC1)C(C)(C)C [Compound 34, 4-(4-(3-((2-(Tert-butyl(methyl)amino)ethyl)amino)-6-(5-(trifluoromethyl)-1,3,4-oxadiazol-2-yl)pyridin-2-yl)piperidin-1-yl)-5,5-dimethyl-5H-pyrrolo[2,3-d]pyrimidin-6(7H)-one]
